Laboratory results published in patent publication US20230157296A1, “METHODS OF REDUCING FUSARIUM CONTAMINATION” (Taminco BV, priority 2020, published 2023).

Tested on: F. oxysporum f. sp. cubense (Foc TR4)
Assay: Panama disease analysis of soil samples after metam sodium field injection
Assay type: in vivo, Fusarium oxysporum f. sp. Cubense Tropical Race 4
Protocol: Metam Sodium Application. Metam sodium 510 SL (equivalent to 42% w/w) was applied to soil at the following doses: 0 liters per hectare (L/ha), 750 L/ha, 1500 L/ha, 2250 L/ha, 3000 L/ha.
Prior to injection, soil was prepared using a rototiller to break the soil structure from 0 cm to 80 cm deep, allowing for the smooth and even injection application by an injection machine. The soil was then leveled and made uniform, and the metam sodium was applied at two depths: 30 cm and 60 cm, using injection methods. The temperature was at a minimum of 10° C. and soil humidity was between 50 and 60% holding capacity, allowing the applied product to transform from metam sodium (liquid) to MITC (gas).
The application was made using an injection machine wherein the machine lowered shanks and began moving forward such that the shanks lowered to a depth of 60 cm and injectors applied the metam sodium into the soil. When the injection at 60 cm was complete, the process was repeated for the entire field at 30 cm. The treated soil in the field was then sealed using a packer roller (which was part of the injection machinery, located at the back end of the machine), after each application.
Soil Analysis. Soil samples were obtained at 20, 40, and 60 cm before application and every 24 hours beginning 48 hours after application, for seven days.
Plant Pathology Analysis. Soil samples used for Panama Disease and nematode analyses were aseptically isolated in culture medium and incubated for seven days at room temperature. Organisms were identified as follows: 20 grams of composite soil sample was diluted with 40 mL distilled water (dH2O); 1 drop of Tween 20 detergent was added, and the sample mixed. A 1 mL aliquot was taken from the solution and diluted with 9 mL dH2O; three further serial dilutions were made. From each dilution, 100 µL were spread on solid Komada growth medium (Sun et al., Phytopathology 68: 1672-1673, 1978). Growth could be seen 7 days after inoculation.

Measured: Panama Disease F. oxysporum f. sp. cubense

CNC(=S)[S-].[Na+] [metam sodium, sodium N-methyldithiocarbamate]
-: Day 1, 20 cm, T2 750 L/ha | Day 1, 20 cm, T3 1500 L/ha | Day 1, 20 cm, T4 2250 L/ha | Day 1, 20 cm, T5 3000 L/ha | Day 1, 40 cm, T2 750 L/ha | Day 1, 40 cm, T3 1500 L/ha | Day 1, 40 cm, T4 2250 L/ha | Day 1, 40 cm, T5 3000 L/ha | Day 1, 60 cm, T2 750 L/ha | Day 1, 60 cm, T3 1500 L/ha | Day 1, 60 cm, T4 2250 L/ha | Day 1, 60 cm, T5 3000 L/ha | Day 2, 20 cm, T2 750 L/ha | Day 2, 20 cm, T3 1500 L/ha | Day 2, 20 cm, T4 2250 L/ha | Day 2, 20 cm, T5 3000 L/ha | Day 2, 40 cm, T2 750 L/ha | Day 2, 40 cm, T3 1500 L/ha | Day 2, 40 cm, T4 2250 L/ha | Day 2, 40 cm, T5 3000 L/ha | Day 2, 60 cm, T2 750 L/ha | Day 2, 60 cm, T3 1500 L/ha | Day 2, 60 cm, T4 2250 L/ha | Day 2, 60 cm, T5 3000 L/ha | Day 3, 20 cm, T2 750 L/ha | Day 3, 20 cm, T3 1500 L/ha | Day 3, 20 cm, T4 2250 L/ha | Day 3, 20 cm, T5 3000 L/ha | Day 3, 40 cm, T2 750 L/ha | Day 3, 40 cm, T3 1500 L/ha | Day 3, 40 cm, T4 2250 L/ha | Day 3, 40 cm, T5 3000 L/ha | Day 3, 60 cm, T2 750 L/ha | Day 3, 60 cm, T3 1500 L/ha | Day 3, 60 cm, T4 2250 L/ha | Day 3, 60 cm, T5 3000 L/ha | Day 4, 20 cm, T2 750 L/ha | Day 4, 20 cm, T3 1500 L/ha | Day 4, 20 cm, T4 2250 L/ha | Day 4, 20 cm, T5 3000 L/ha | Day 4, 40 cm, T2 750 L/ha | Day 4, 40 cm, T3 1500 L/ha | Day 4, 40 cm, T4 2250 L/ha | Day 4, 40 cm, T5 3000 L/ha | Day 4, 60 cm, T2 750 L/ha | Day 4, 60 cm, T3 1500 L/ha | Day 4, 60 cm, T4 2250 L/ha | Day 4, 60 cm, T5 3000 L/ha | Day 5, 20 cm, T2 750 L/ha | Day 5, 20 cm, T3 1500 L/ha | Day 5, 20 cm, T4 2250 L/ha | Day 5, 20 cm, T5 3000 L/ha | Day 5, 40 cm, T2 750 L/ha
